Assays:
[1] = test system: S100β; test: Intracellular S100β content in secondary cultured astrocytes (ELISA); format: cell-based, rat; details: astrocytes treated 2 weeks, control group 2177.0±147.74
Excerpt: The 1 to 2 day-old neonatal Wistar rats (10 animals) were decapitated and sterilized their heads in ethanol. Ethanol and blood was removed in ice-cold DMEM medium (purchased from Sigma). Meningis was peeled and cortex of cerebrum was removed in ice-cold DMEM medium (purchased from Sigma) under the stereomicroscope. The cortex of cerebrum was minced with frosted glass-slides (purchased from Matsunami) to suspension in ice-cold DMEM medium (purchased from Sigma). Cell suspension was filtrated with 70 micrometer-diameter filter (falcon2350). The filtrate was centrifuged at 100×g for 3 minutes, and the pellet was re-suspended in 10% FCS (fetal calf serum)-containing DMEM medium. The washing procedure using 10% FCS-DMEM medium was repeated 3 times and cells were re-suspended in 10% FCS-DMEM medium. The obtained cell suspension was plated in 75 cm^2 flask (falcon3024) (one flask (containing 12 ml of medium) containing cells obtained from one neonatal rat), and cultured at 37° C. under an atmosphere of 5% CO2, 95% air (0 day of culture). After 2 days of culture (2 days of culture), culture media was aspirated and flask was shaken by hands to remove an unadhesive cells. The flask was washed with DMEM medium and the suspended cells ware removed. This procedure was repeated 3 times till the unadhesive cells were removed completely confirmed by microscope. Then, 10% FCS-DMEM medium was added to flask (12 ml/flask) and cultured at 37° C. under an atmosphere of 5% CO2, 95% air (medium was changed in 12 days after onset of culture).
Primary culture of Astrocytes (19 days after onset of culture, 3 flasks) was purified by the same procedure as used in cell purification in primary culture. Then, the adhesive cells were treated with 0.05% Trypsin-1 mmol/L EDTA at 37° C. till the cells were detached. The cells were suspended in 10% FCS-DMEM medium and transferred to microtube. After centrifugation at 100×g for 3 minutes, the pellet was resuspended in 10% FCS-DMEM medium. A portion of cell suspension was mixed with an equal volume of Trypan-Blue solution. The number of living cells was measured by using the Burker-Turk counting chamber under the phase-contrast microscope. Cells were suspended in 10% FCS-DMEM medium at the cell density of 2×10^5 cells/ml and cultured in 48 well culture plate (6 plates, 0.5 ml/well) at 37° C. under an atmosphere of 5% CO2, 95% air. After 24 hour cultivation, culture medium was changed to the test-compound containing medium (0.5 ml/well), and the cultivation was conducted for 2 weeks at 37° C. under an atmosphere of 5% CO2, 95% air. The change of medium was conducted on 27 days after onset of cultivation. […]

[2] = test system: 6 weeks-old male rat; test: Long-term repetitive oral dosing, general side effect; format: in vivo; details: orally once daily, 250 mg/kg per once
Method: Each test compounds were dissolved with an aqueous solution of trisodium phosphate, and diluted with a water for injection. The obtained drug solution was orally administrated once daily to 6 weeks-old male rat by long-term repetitive dosing at a dose of 250 mg/kg per once.

SMILES	intracellular content of S100β ([1]; 30 micromol/L-treated group (n=4), P<0.001 Dunnett test) [ng/mg unit protein]	intracellular content of S100β ([1]; 100 micromol/L-treated group) [ng/mg unit protein]	general side effect [2]
CCC[C@H](CCCCC(C)=O)C(=O)O [Example 1(1), (2R)-7-oxo-2-propyloctanoic acid]	1489.0±37.84	1053.5±39.57	does not show a general side effect
CCC[C@H](CCCC[C@@H](C)O)C(=O)O [Example 1(2), (2R,7R)-7-hydroxy-2-propyloctanoic acid]	–	1422.5±74.70	–
CCC[C@H](CCCCCCO)C(=O)O [Example 1(4), (2R)-8-hydroxy-2-propyloctanoic acid]	–	1192.8±58.78	does not show a general side effect
